Data published in patent US20230255953A1, “USE OF ROLUPERIDONE IN PREVENTING RELAPSE IN SCHIZOPHRENIA PATIENTS” (Minerva Neurosciences, Inc., priority 2022, published 2023).

Tested on: patients with negative symptoms of schizophrenia
Assay: Integrated analysis of Studies #1 and #2 (pooled ITT): PANSS-derived scores (NSFS, total, positive and negative subscales), DB, OL and whole study
Type: in vivo, human
Design: key to NSFS Score change from Baseline, Median: change from Baseline in PANSS NSFS points; higher score = more severe
Conditions: for NSFS Score change from Baseline, LS mean (SE) / NSFS Score change from Baseline, Mean (SD) / NSFS Score change from Baseline, Median / NSFS Score, Difference (95% CI) in LS mean (vs placebo) / PANSS Negative Subscale Score change from Baseline, LS mean (SE) / PANSS Negative Subscale Score change from Baseline, Mean (SD) / PANSS Negative Subscale Score change from Baseline, Median / PANSS Negative Subscale Score, Difference (95% CI) in LS mean (vs placebo) / PANSS Total Score change from Baseline, LS mean (SE) / PANSS Total Score change from Baseline, Mean (SD) / PANSS Total Score change from Baseline, Median / PANSS Total Score, Difference (95% CI) in LS mean (vs placebo): DB
Description: The primary integrated analysis of the efficacy of Roluperidone compared with placebo for the treatment of negative symptoms of schizophrenia is based on the change from Baseline in the PANSS Marder's negative symptoms factor score (in this document referred to as NSFS) to Week 12. Efficacy is also supported by the analysis of change from Baseline in the PSP Total score and the CGI-S to Week 12.
The PANSS was assessed at the time points described in Table 4.
The PANSS-derived endpoints used in these studies and the integrated analyses are described in Table 5A and a summary of the individual PANSS items used by physicians and clinicians to measure the severity of the symptoms in a schizophrenia patient is provided in Table 5B. The scale is divided into three parts, a positive scale, which provides a “PANSS positive subscore”, a negative scale, which provides a “PANSS negative subscore”, and general psychopathology scale. The sum of these three parts provides a PANSS total score, which ranges from 30 to 210 (where higher scores indicate more severe symptoms). (See Kay, S. R., et al. “The positive and negative syndrome scale (PANSS) for schizophrenia,” Schizophr Bulletin, 13(2), 261-276 (1987) and Gopal, S., et al. “Improvement of Negative Symptoms in Schizophrenia with Paliperidone Palmitate 1-Month and 3-Month Long-Acting Injectables: Results from a Phase 3 Non-Inferiority Study” Neuropsychiatric Disease and Treatment, 681-690, DOI: 10.2147/NDT.5226296, both of which are incorporated by reference.)
The Efficacy data from Study Nos. 1 and 2 were pooled. The majority of patients in the pooled ITT population completed the DB period (502 patients overall, 66.3%), with similar rates in each treatment group (placebo: 69.8%, 32 mg Roluperidone: 65.3%, and 64 mg Roluperidone: 63.8%) (Table 12). The majority (62.7%) of those who completed the DB period entered the OL period. The most common reason for discontinuation during the DB period among patients overall was withdrawal of consent (15.6%), followed by adverse events (7.3%) and lack of efficacy (5.4%) (Table 12). […] Approximately twice as many patients in the Roluperidone groups (32 mg: 8.5%; 64 mg: 9.1%) discontinued due to adverse events compared with patients in the placebo group (4.3%). More patients in the placebo group discontinued due to lack of efficacy (6.7%) than in the Roluperidone groups (32 mg: 4.4%; 64 mg: 5.1%). The low number of patients who discontinued due to lack of efficacy or withdrawal of consent probably reflects a low level of worsening of positive symptoms.
The integrated analysis supporting the efficacy of Roluperidone as a treatment for the negative symptoms of schizophrenia in adults is presented below.

1H-Isoindol-1-one,2-[ [1-[2-(4-fluorophenyl)-2-oxoethyl]-4-piperidinyl]methyl]-2,3-dihydro-, hydrochloride, hydrate (1:1:2) [Roluperidone]
PANSS positive subscale score, LS mean change from Baseline compared with placebo (32 mg, Week 12, pooled ITT): −0.3 | PANSS total score, LS mean change from Baseline compared with placebo (32 mg, Week 12, pooled ITT): −1.9 | Patients with 20% Reduction in NSFS at Week 12, percent (32 mg, responder analysis): 31% | Patients with 20% Reduction in PANSS Total Score at Week 12, percent (32 mg, responder analysis): 14% | Number of Patients with 20% Reduction in PANSS Total Score at Week 12 (32 mg, responder analysis, n/N): 24/167 | Number of Patients with 20% reduction in NSFS at Week 12 (32 mg, responder analysis, n/N): 51/167 | NSFS Score change from Baseline, LS mean (SE) (64 mg, Week 2, pooled ITT): −1.4 (0.15) | NSFS Score change from Baseline, Mean (SD) (64 mg, Week 2, pooled ITT): −1.4 (2.34) | NSFS Score change from Baseline, Median (64 mg, Week 2, pooled ITT): −1.0 | NSFS Score, Difference (95% CI) in LS mean (vs placebo) (64 mg, Week 2, pooled ITT): −0.4 (−0.8, −0.0) | PANSS Negative Subscale Score change from Baseline, LS mean (SE) (64 mg, Week 2, pooled ITT): −1.4 (0.14) | PANSS Negative Subscale Score change from Baseline, Mean (SD) (64 mg, Week 2, pooled ITT): −1.4 (2.28) | PANSS Negative Subscale Score change from Baseline, Median (64 mg, Week 2, pooled ITT): −1.0 | PANSS Negative Subscale Score, Difference (95% CI) in LS mean (vs placebo) (64 mg, Week 2, pooled ITT): −0.4 | PANSS Total Score change from Baseline, LS mean (SE) (64 mg, Week 2, pooled ITT): −2.2 (0.44) | PANSS Total Score change from Baseline, Mean (SD) (64 mg, Week 2, pooled ITT): −2.2 (7.15) | PANSS Total Score change from Baseline, Median (64 mg, Week 2, pooled ITT): −2.0 | PANSS Total Score, Difference (95% CI) in LS mean (vs placebo) (64 mg, Week 2, pooled ITT): −0.9 | PANSS Positive Subscale Score change from Baseline, LS mean (SE) (64 mg, Week 2, pooled ITT): −0.1 (0.17) | PANSS Positive Subscale Score change from Baseline, Mean (SD) (64 mg, Week 2, pooled ITT): −0.1 (2.85) | PANSS Positive Subscale Score change from Baseline, Median (64 mg, Week 2, pooled ITT): 0.0 | PANSS Positive Subscale Score, Difference (95% CI) in LS mean (vs placebo) (64 mg, Week 2, pooled ITT): −0.1 | NSFS Score change from Baseline, LS mean (SE) (64 mg, Week 4, pooled ITT): −2.5 (0.19) | NSFS Score change from Baseline, Mean (SD) (64 mg, Week 4, pooled ITT): −2.6 (2.73) | NSFS Score change from Baseline, Median (64 mg, Week 4, pooled ITT): −2.0 | NSFS Score, Difference (95% CI) in LS mean (vs placebo) (64 mg, Week 4, pooled ITT): −1.1 | PANSS Negative Subscale Score change from Baseline, LS mean (SE) (64 mg, Week 4, pooled ITT): −2.6 (0.19) | PANSS Negative Subscale Score change from Baseline, Mean (SD) (64 mg, Week 4, pooled ITT): −2.8 (2.82) | PANSS Negative Subscale Score change from Baseline, Median (64 mg, Week 4, pooled ITT): −2.0 | PANSS Negative Subscale Score, Difference (95% CI) in LS mean (vs placebo) (64 mg, Week 4, pooled ITT): −1.2 | PANSS Total Score change from Baseline, LS mean (SE) (64 mg, Week 4, pooled ITT): −4.5 (0.52) | PANSS Total Score change from Baseline, Mean (SD) (64 mg, Week 4, pooled ITT): −5.1 (7.16) | PANSS Total Score change from Baseline, Median (64 mg, Week 4, pooled ITT): −5.0 | PANSS Total Score, Difference (95% CI) in LS mean (vs placebo) (64 mg, Week 4, pooled ITT): −2.5 | PANSS Positive Subscale Score change from Baseline, LS mean (SE) (64 mg, Week 4, pooled ITT): −0.2 (0.18) | PANSS Positive Subscale Score change from Baseline, Mean (SD) (64 mg, Week 4, pooled ITT): −0.4 (2.49) | PANSS Positive Subscale Score change from Baseline, Median (64 mg, Week 4, pooled ITT): −1.0 | PANSS Positive Subscale Score, Difference (95% CI) in LS mean (vs placebo) (64 mg, Week 4, pooled ITT): −0.5 | NSFS Score change from Baseline, LS mean (SE) (64 mg, Week 8, pooled ITT): −3.4 (0.23) | NSFS Score change from Baseline, Mean (SD) (64 mg, Week 8, pooled ITT): −3.6 (3.28) | NSFS Score change from Baseline, Median (64 mg, Week 8, pooled ITT): −3.0 | NSFS Score, Difference (95% CI) in LS mean (vs placebo) (64 mg, Week 8, pooled ITT): −1.2 | PANSS Negative Subscale Score change from Baseline, LS mean (SE) (64 mg, Week 8, pooled ITT): −3.7 (0.23) | PANSS Negative Subscale Score change from Baseline, Mean (SD) (64 mg, Week 8, pooled ITT): −3.9 (3.27) | PANSS Negative Subscale Score change from Baseline, Median (64 mg, Week 8, pooled ITT): −3.0 | PANSS Negative Subscale Score, Difference (95% CI) in LS mean (vs placebo) (64 mg, Week 8, pooled ITT): −1.3 | PANSS Total Score change from Baseline, LS mean (SE) (64 mg, Week 8, pooled ITT): −5.7 (0.65) | PANSS Total Score change from Baseline, Mean (SD) (64 mg, Week 8, pooled ITT): −6.8 (8.79) | PANSS Total Score change from Baseline, Median (64 mg, Week 8, pooled ITT): −6.0 | PANSS Total Score, Difference (95% CI) in LS mean (vs placebo) (64 mg, Week 8, pooled ITT): −2.5 | PANSS Positive Subscale Score change from Baseline, LS mean (SE) (64 mg, Week 8, pooled ITT): −0.3 (0.20) | PANSS Positive Subscale Score change from Baseline, Mean (SD) (64 mg, Week 8, pooled ITT): −0.6 (2.61) | PANSS Positive Subscale Score change from Baseline, Median (64 mg, Week 8, pooled ITT): −1.0 | PANSS Positive Subscale Score, Difference (95% CI) in LS mean (vs placebo) (64 mg, Week 8, pooled ITT): −0.5 | NSFS Score change from Baseline, LS mean (SE) (64 mg, Week 12, pooled ITT): −3.9 (0.26) | NSFS Score change from Baseline, Mean (SD) (64 mg, Week 12, pooled ITT): −4.1 (3.64) | NSFS Score change from Baseline, Median (64 mg, Week 12, pooled ITT): −3.5 | NSFS Score, Difference (95% CI) in LS mean (vs placebo) (64 mg, Week 12, pooled ITT): −1.3 | PANSS Negative Subscale Score change from Baseline, LS mean (SE) (64 mg, Week 12, pooled ITT): −4.1 (0.27) | PANSS Negative Subscale Score change from Baseline, Mean (SD) (64 mg, Week 12, pooled ITT): −4.4 (3.75) | PANSS Negative Subscale Score change from Baseline, Median (64 mg, Week 12, pooled ITT): −4.0 | PANSS Negative Subscale Score, Difference (95% CI) in LS mean (vs placebo) (64 mg, Week 12, pooled ITT): −1.3 | PANSS Total Score change from Baseline, LS mean (SE) (64 mg, Week 12, pooled ITT): −6.3 (0.70) | PANSS Total Score change from Baseline, Mean (SD) (64 mg, Week 12, pooled ITT): −7.7 (9.43) | PANSS Total Score change from Baseline, Median (64 mg, Week 12, pooled ITT): −7.0 | PANSS Total Score, Difference (95% CI) in LS mean (vs placebo) (64 mg, Week 12, pooled ITT): −2.8 | NSFS Emotional Experience Score, Change from Baseline (LS Means [SEM]) (64 mg, Week 12, ITT): −1.6 (0.13) | NSFS Emotional Expression Score, Change from Baseline (LS Means [SEM]) (64 mg, Week 12, ITT): −2.3 (0.16) | NSFS, Change from Baseline (LS Means [SEM]) (64 mg, Week 12, ITT): −3.9 (0.26) | PANSS General Psychopathology Subscale, Change from Baseline (LS Means [SEM]) (64 mg, Week 12, ITT): −2.2 (0.37) | PANSS Negative Symptoms Subscale, Change from Baseline (LS Means [SEM]) (64 mg, Week 12, ITT): −4.1 (0.27) | PANSS Positive Symptoms Subscale, Change from Baseline (LS Means [SEM]) (64 mg, Week 12, ITT): −0.2 (0.21) | PANSS Total Score, Change from Baseline (LS Means [SEM]) (64 mg, Week 12, ITT): −6.3 (0.70) | NSFS, LS mean change from Baseline compared with placebo (64 mg, Week 12, normal BMI (<25 kg/m^2) subgroup, pooled ITT): −1.7 | NSFS, LS mean change from Baseline compared with placebo (64 mg, Week 12, obese (≥30 kg/m^2) subgroup, pooled ITT): −0.1 | NSFS, LS mean change from Baseline compared with placebo (64 mg, Week 12, overweight BMI (25 to <30 kg/m^2) subgroup, pooled ITT): −1.4 | Patients with high improvement in NSFS (magnitude of change >8) (64 mg, Week 12, pooled): 13%
